Test results: paper PMC7449411, “In silico discovery and biological validation of ligands of FAD synthase, a promising new antimicrobial target” (PLoS Computational Biology, 2020)
≈ marks a conversion by molar mass, not a printed value.

How the values were obtained:
HeLa = assay: MTT cytotoxicity assay; assay type: cell-based; details: 24 h; for IC50: 4-512 μM range, read-out: IC50 (concentration causing 50% inhibition of cellular viability)
Description: (§1) The (4,5-dimethylthiazol-2-yl)-2,5-diphenyl tetrazolium bromide (MTT) assay was used to determine the effect of the compounds in cell growth and viability of HeLa (ATCC CCL-2) and A549 (ATCC CCL-185) eukaryotic cell lines. Both cell lines were routinely cultured in high-glucose DMEM (Lonza) supplemented with 10% fetal bovine serum, 4 mM glutamine GlutaMAX™ (Gibco) and 1x non-essential amino acids (Gibco), under 5% CO2 at 37 °C in a humidified atmosphere. For the MTT assay, cells were initially seeded in 96-well flat-bottom plates at a density of 10^4 cells per well and cultured for 24 h. Cultures were routinely tested for mycoplasma presence. The compounds were dissolved in fresh culture medium, added in a 4-512 μM concentration range (1% DMSO final concentration), and incubated with the cells for 24 h. Finally, formazan crystals were dissolved with pure DMSO and MTT absorbance was measured at 570 and 650 nm. Untreated cells were included as control of 100% viability. Assays were done in quadruplicate.

A549 = assay: MTT cytotoxicity assay; assay type: cell-based; details: 24 h; for IC50: 4-512 μM range, read-out: IC50 (concentration causing 50% inhibition of cellular viability)
Description: as §1

C. glutamicum = assay: MIC, resazurin broth microdilution; assay type: cell-based, Corynebacterium glutamicum; details: media BHI
M. tuberculosis = assay: MIC, resazurin broth microdilution; assay type: cell-based, Mycobacterium tuberculosis; details: for MIC: M. tuberculosis, media 7H9G-ADC; for MIC (μM) M. tuberculosis: Table 3
S. pneumoniae = assay: MIC, resazurin broth microdilution; assay type: cell-based, Streptococcus pneumoniae
FMNAT activity of CaFADS = biological target: T1, FMNAT activity of CaFADS (Corynebacterium ammoniagenes, UniProt Q59263); assay: Inhibition of the FMNAT activity of CaFADS; assay type: biochemical; details: for FMNAT % Res. act. 250 μM: residual activity at 250 μM of compound, 25 °C
T1 construct: made in house; host or cells: Escherichia coli BL21(DE3)
Description: (§2) To determine the compound’s ability to inhibit the RFK and/or the FMNAT activities of CaFADS, both enzymatic activities were quantitatively measured in the absence and presence of the compounds following previously described protocols. Reaction mixtures contained 50 μM ATP, 5 μM RF in 20 mM PIPES, pH 7.0, 0.8 mM MgCl2, when assaying the RFK activity, and 50 μM ATP, 10 μM FMN in 20 mM PIPES, pH 7.0, 10 mM MgCl2 when measuring the FMNAT reaction. Each compound was tested at 250 μM (0.5% residual final concentration of DMSO) for each of the two enzymatic reactions. The samples were pre-incubated at 25 °C, the reaction was then initiated by the addition of ∼ 40 nM CaFADS (final concentration) and allowed for 1 min. Finally, the reaction was stopped by boiling the samples for 5 min and the denatured protein was eliminated through centrifugation. The transformation of RF into FMN and FAD (RFK activity) and of FMN into FAD (FMNAT activity) was evaluated through flavins separation by HPLC (Waters), as previously described. All the experiments were performed in triplicate. To evaluate the potency of compounds as inhibitors, we took advantage of the decrease in quantum yield of fluorescence when FMN is transformed into FAD, which allows to follow such transformation in a continuous system. Measurements were carried out using a microplate reader Synergy HT multimode plate reader (Biotek) with BRAND 96-well plates pure Grade. Reaction mixtures contained 5 μM RF or FMN, and 50 μM ATP in 20 mM PIPES, pH 7.0, 10 mM MgCl2, and the inhibitor compound in a 5-250 μM concentration range (2% residual final concentration of DMSO). Reactions were initiated through addition of 0.4 μM CaFADS, being the final reaction volume 100 μL. Flavin fluorescence (excitation at 440 nm and emission at 530 nm) was registered at 25 °C, every 50 s during 15 min. The fluorescence change per time unit (ΔF/Δt) was calculated as the slope of the resulting fluorescence decays recorded between 0 and 6 min (linear decay of the fluorescence). Controls which contained the reaction mixture without the enzyme and without any potential CaFADS inhibitory compound were included in the assay and referred as the 0% and 100% of enzymatic activity, respectively. IC50 was calculated as the concentration of compound required for a 50% inhibition of the enzymatic activity.

P. aeruginosa = assay: MIC, resazurin broth microdilution; assay type: cell-based, Pseudomonas aeruginosa; details: media MH
S. thyphimurium = assay: MIC, resazurin broth microdilution; assay type: cell-based, Salmonella thyphimurium; details: media MH
E. coli = assay: MIC, resazurin broth microdilution; assay type: cell-based, Escherichia coli; details: media LB
M. smegmatis = assay: MIC, resazurin broth microdilution; assay type: cell-based, Mycobacterium smegmatis; details: media 7H9G-ADC
Mycobacteriumspecies = assay: MIC against Mycobacterium species (S5 Fig legend); assay type: cell-based
[1] = biological target: T2, RFK+FMNAT CaFADS activities (Corynebacterium ammoniagenes, UniProt Q59263); assay: Inhibition of the RFK+FMNAT activity of CaFADS; assay type: biochemical; details: residual activity at 250 μM of compound, 25 °C
T2 construct: made in house; host or cells: Escherichia coli BL21(DE3)
Description: as §2

S. aureus = assay: MIC, resazurin broth microdilution; assay type: cell-based, Staphylococcus aureus; details: media MH
C. ammoniagenes = assay: MIC, resazurin broth microdilution; assay type: cell-based, Corynebacterium ammoniagenes; details: for MIC: C. ammoniagenes; for MIC C. ammoniagenes: S5 Fig legend, medium not stated; for MIC (μM) C. ammoniagenes: Table 3
L. monocytogenes = assay: MIC, resazurin broth microdilution; assay type: cell-based, Listeria monocytogenes; details: media BHI
C. diphteriae = assay: MIC, resazurin broth microdilution; assay type: cell-based, Corynebacterium diphteriae
CaFADS = biological target: T3, CaFADS (Corynebacterium ammoniagenes, UniProt Q59263); assay: Differential scanning fluorescence (thermal denaturation) binding to CaFADS; details: for Tm shift of CaFADS thermal denaturation: 2 μM CaFADS, compound up to 250 μM; for Kd: from differential scanning fluorescence data fitted to Eq 2, 20 mM PIPES pH 7.0, 10 mM MgCl2, 2% DMSO, n = 3, mean ± SD
T3 construct: made in house; host or cells: Escherichia coli BL21(DE3)
Description: Interaction of compounds with CaFADS was evaluated using fluorescence thermal denaturation, on the bases of the shifts in denaturation midpoints of thermal curves of the protein [65]. Denaturations were performed in a Stratagene Agilent Mx3005p qPCR instrument (Santa Clara, US) following SYPR Orange (ThermoFisher Scientific) emission fluorescence (excitation at 492 nm and emission at 610 nm), which greatly increases when this probe binds to protein hydrophobic regions becoming solvent exposed upon thermal unfolding. Solutions containing 2 μM CaFADS with the studied compound in an increasing 5-250 μM concentration range (2% residual final concentration of DMSO) and 5xSYPR Orange in 20 mM PIPES pH 7.0, 10 mM MgCl2, with a 100 μL total volume were dispensed into 96-well microplates (BRAND 96-well plates pure grade™). After an initial 1 min incubation at 25 °C within the equipment, unfolding curves were registered from 25 to 100 °C at 1 °C·min^−1. Control experiments with CaFADS samples with/without DMSO were routinely performed in each microplate. For those compounds shifting midpoint denaturation temperature, Tm, the dissociation constant, Kd, was predicted by fitting the data to the equation [66] ΔTm/Tm=NRTm0/ΔH0ln(1+[L]/Kd), (2) which estimates the extent of the ligand-induced protein stabilization/destabilization. ΔTm=|Tm-Tm0| with Tm0 and Tm being the midpoint denaturation temperatures in the absence and the presence of ligand, respectively, and ΔH0 the unfolding enthalpy of the protein in the absence of ligand.

Bacillus spp. = assay: MIC, resazurin broth microdilution; assay type: cell-based, Bacillus sp.; details: media MH
[2] = complete viability at lower concentrations

T3 sequence (Q59263 whole entry): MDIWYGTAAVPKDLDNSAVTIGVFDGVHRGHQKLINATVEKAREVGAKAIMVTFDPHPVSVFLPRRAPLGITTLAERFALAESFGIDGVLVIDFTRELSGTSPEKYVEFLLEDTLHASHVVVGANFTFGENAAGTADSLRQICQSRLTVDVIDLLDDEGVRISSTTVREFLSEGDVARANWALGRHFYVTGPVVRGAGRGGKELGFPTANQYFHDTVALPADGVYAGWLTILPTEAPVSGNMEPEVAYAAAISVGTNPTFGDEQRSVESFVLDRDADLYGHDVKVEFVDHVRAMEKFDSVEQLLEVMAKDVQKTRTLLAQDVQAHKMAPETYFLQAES
T1 sequence (Q59263 whole entry): as above
T2 sequence (Q59263 whole entry): as above

SMILES	IC50 (HeLa) [µM]	IC50 (A549) [µM]	MIC (C. glutamicum) [µM]	MIC (M. tuberculosis) [µM]	MIC (μM) M. tuberculosis (M. tuberculosis) [µM]	MIC (S. pneumoniae; media BHI) [µM]	MIC (S. pneumoniae; media MH) [µM]	MIC (P. aeruginosa) [µM]	MIC (S. thyphimurium) [µM]	MIC (E. coli) [µM]	MIC (M. smegmatis) [µM]	MIC Mycobacterium species (Mycobacteriumspecies)	MIC (S. aureus) [µM]	MIC (C. ammoniagenes; media MH) [µM]	MIC (C. ammoniagenes; media MH+DFO) [µM]	MIC (C. ammoniagenes; media MH+DIP) [µM]	MIC (C. ammoniagenes; media MH+DIP+DFO) [µM]	MIC (μM) C. ammoniagenes (C. ammoniagenes) [µM]	MIC (L. monocytogenes) [µM]	MIC (C. diphteriae; media MH) [µM]	further results
COc1ccc(C(NC(=O)CCC(NC(=O)OCc2ccccc2)C(=O)O)c2ccc(OC)cc2)cc1 (centres unmarked) [Compound C2, 2-{[(benzyloxy)carbonyl]amino}-5-{[di(4-methoxyphenyl)methyl]amino}-5-oxopentanoic acid]	> 512	> 512	16 (≈ 8.1 µg/mL)	256 (≈ 130 µg/mL)	256 (≈ 130 µg/mL)	256 (≈ 130 µg/mL)	> 256	> 256	> 256	> 64	256 (≈ 130 µg/mL)	lower than 256 μM	128 (≈ 64.8 µg/mL)	128 (≈ 64.8 µg/mL)	128 (≈ 64.8 µg/mL)	128 (≈ 64.8 µg/mL)	64 (≈ 32.4 µg/mL)	128 (≈ 64.8 µg/mL)	> 64	128 (≈ 64.8 µg/mL)	FMNAT % Res. act. 250 μM (FMNAT activity of CaFADS): >95%; RFK+FMNAT % Res. act. 250 μM [1]: 88 ± 2%; MIC (C. ammoniagenes; media BHI): 64 µM (≈ 32.4 µg/mL); MIC C. ammoniagenes (C. ammoniagenes): 64 µM (≈ 32.4 µg/mL); MIC (C. diphteriae; media BHI): 64 µM (≈ 32.4 µg/mL)
O=C(Nc1ccccc1C(=O)O)OCC1c2ccccc2-c2ccccc21 [Compound C5, 2-{[(9H-9-fluorenylmethoxy)carbonyl]amino}benzoic acid]	> 512	> 512	32 (≈ 11.5 µg/mL)	128 (≈ 46 µg/mL)	128 (≈ 46 µg/mL)	128 (≈ 46 µg/mL)	256 (≈ 92 µg/mL)	> 256	> 256	> 64	> 256	lower than 256 μM		32 (≈ 11.5 µg/mL)	32 (≈ 11.5 µg/mL)	32 (≈ 11.5 µg/mL)	32 (≈ 11.5 µg/mL)	32 (≈ 11.5 µg/mL)	> 64	32 (≈ 11.5 µg/mL)	inhibition of the FMNAT activity of CaFADS (FMNAT activity of CaFADS; at the maximal compound concentration assayed (250 μM)): over 90%; Tm shift of CaFADS thermal denaturation (CaFADS): shifted it to lower values; Kd (CaFADS): 1.7 ± 0.7 µM; MIC (Bacillus spp.): 32 µM (≈ 11.5 µg/mL); MIC (C. ammoniagenes; media BHI): > 64 µM; MIC (C. diphteriae; media BHI): 64 µM (≈ 23 µg/mL)
CC(C)c1ccc(NC(=S)NNC(=O)NC(=O)c2csc([N+](=O)[O-])c2)cc1 [Compound C6, N-({2-[(4-isopropylanilino)carbothioyl]hydrazino}carbonyl)-5-nitrothiophene-3-carboxamide]	> 512	> 512	> 64		128 (≈ 52.2 µg/mL)	> 256	64 (≈ 26.1 µg/mL)	> 256	> 256	> 64	> 256	lower than 256 μM	> 256	128 (≈ 52.2 µg/mL)	128 (≈ 52.2 µg/mL)	128 (≈ 52.2 µg/mL)	128 (≈ 52.2 µg/mL)	128 (≈ 52.2 µg/mL)	> 64	128 (≈ 52.2 µg/mL)	FMNAT % Res. act. 250 μM (FMNAT activity of CaFADS): 48 ± 6%; Tm shift of CaFADS thermal denaturation (CaFADS): more than 3 degrees; Kd (CaFADS): 41 ± 3 µM; RFK+FMNAT % Res. act. 250 μM [1]: 57 ± 3%; MIC (C. ammoniagenes; media BHI): > 64 µM; MIC C. ammoniagenes (C. ammoniagenes): lower than 256 μM; MIC (C. diphteriae; media BHI): > 64 µM
CC1(C)c2ccccc2-n2c1cc1oc(=O)cc(O)c1c2=O [Compound C27, 4-hydroxy-11,11-dimethyl-5,11-dihydro-2H-pyrano[2',3':4,5]pyrido[1,2-a]indole-2,5-dione]			64 (≈ 18.9 µg/mL)	256 (≈ 75.6 µg/mL)	256 (≈ 75.6 µg/mL)			> 256	> 256	> 256		lower than 256 μM	64 (≈ 18.9 µg/mL)	128 (≈ 37.8 µg/mL)	128 (≈ 37.8 µg/mL)	64 (≈ 18.9 µg/mL)	128 (≈ 37.8 µg/mL)	128 (≈ 37.8 µg/mL)	64 (≈ 18.9 µg/mL)	64 (≈ 18.9 µg/mL)	concentration range with moderate cytotoxicity (HeLa; [2]): 256 to 512 µM; concentration range with moderate cytotoxicity (A549; [2]): 256 to 512 µM; MIC (Bacillus spp.): 32 µM (≈ 9.45 µg/mL); MIC C. ammoniagenes (C. ammoniagenes): lower than 256 μM
